Values of other authors as cited in US9265822B2 (priority 2009, dated 2016).

Test system: 2009 H1N1 swine flu virus

Row | Structure (SMILES) | effectiveness against the 2009 "swine" flu
1 | NC12CC3CC(CC(C3)C1)C2 [amantadine] | not proven effect
2 | CCOC(=O)C1=C[C@@H](OC(CC)CC)[C@H](NC(C)=O)[C@@H](N)C1 [oseltamivir] | effective
3 | CC(N)C12CC3CC(CC(C3)C1)C2 (stereo not shown) [rimantadine] | not proven effect
4 | CC(=O)N[C@H]1[C@H]([C@H](O)[C@H](O)CO)OC(C(=O)O)=C[C@@H]1N=C(N)N [zanamivir] | effective
